Patent US20040162221A1, “Pyrazole derivatives and herbicides containing the same” (IDEMITSU KOSAN CO., LTD., priority 1998, published 2004)

Assays:
[1] = tested on: velvetleaf; test: Upland pre-emergence treatment test, velvetleaf; type: in vivo, velvetleaf (Abutilon theophrasti); details: for Herbicidal Efficacy AA = Velvetleaf: pre-emergence soil surface spray, 80 g/ha, 20th day after treatment, greenhouse; on Herbicidal Efficacy AA = Velvetleaf: ranges in brackets are in %
From the text: (§1) 97 Parts by weight of talc (trade name: Zeaklite, supplied by Zeaklite Industry) as a carrier, 1.5 parts by weight of alkylarylsulfonic acid salt (trade name: Neoplex, supplied by Kao-Atlas K.K.) as a surfactant and 1.5 parts by weight of a nonionic and anionic surfactant (trade names Sorpol 800A, supplied by Toho Chemical Co., Ltd.) were uniformly pulverized and mixed to prepare a carrier for a wettable powder.
(§2) 90 Parts by weight of the above carrier for a wettable powder and 10 parts by weight of one of the compounds of the present invention were uniformly pulverized and mixed to obtain herbicides. Further, in Comparative Herbicide Examples, comparative herbicides were also prepared from the following compounds (A) and (B) in the same manner.
(§3) Herbicidal efficacy and phytotoxicity to crops were determined on the basis of the ratio of remaining plant weight to plant weight in non-treated plot=(remaining plant weight in treated plot/plant weight in non-treated-plot)×100. The ratings were applied to the following biological tests.
(§4) Seeds of weeds such as velvetleaf, common lambsquaters, redroot pigweed, common ragweed, green foxtail and large crabgrass and seeds of corn were sown in 1/5,000-are Wagner pots filled with upland soil, and covered with upland soil. Then, a predetermined amount of the herbicide prepared in the above (1) was suspended in water, and the suspension was uniformly sprayed onto the soil surface at a rate of 2,000 liters/hectare. Then, the seeds were grown in a greenhouse, and on the 20th day after the treatment, the herbicide was evaluated for herbicidal efficacy and phytotoxicity to corn on the basis of the ratings shown in (2).

[2] = tested on: common lambsquaters; test: Upland pre-emergence treatment test, common lambsquaters; type: in vivo, common lambsquaters (Chenopodium album); details: pre-emergence soil surface spray, 80 g/ha, 20th day after treatment, greenhouse; further: ranges in brackets are in %
From the text: as §1, §2, §3, §4

[3] = tested on: redroot pigweed; test: Upland pre-emergence treatment test, redroot pigweed; type: in vivo, redroot pigweed (Amaranthus retroflexus); details: for Herbicidal Efficacy CC = Rough Pigweed: pre-emergence soil surface spray, 80 g/ha, 20th day after treatment, greenhouse; for herbicidal efficacy against redroot pigweed (in words): pre-emergence, text summary of Table 7; on Herbicidal Efficacy CC = Rough Pigweed: ranges in brackets are in %
From the text: as §1, §2, §3, §4

[4] = tested on: common ragweed; test: Upland pre-emergence treatment test, common ragweed; type: in vivo, common ragweed (Ambrosia artemisilfolia); details: for Herbicidal Efficacy DD = Common ragweed: pre-emergence soil surface spray, 80 g/ha, 20th day after treatment, greenhouse; on Herbicidal Efficacy DD = Common ragweed: ranges in brackets are in %
From the text: as §1, §2, §3, §4

[5] = tested on: green foxtail; test: Upland pre-emergence treatment test, green foxtail; type: in vivo, green foxtail (Setaria viridis); details: pre-emergence soil surface spray, 80 g/ha, 20th day after treatment, greenhouse; further: ranges in brackets are in %
From the text: as §1, §2, §3, §4

[6] = tested on: large crabgrass; test: Upland pre-emergence treatment test, large crabgrass; type: in vivo; details: pre-emergence soil surface spray, 80 g/ha, 20th day after treatment, greenhouse; further: ranges in brackets are in %
From the text: as §1, §2, §3, §4

[7] = tested on: corn; test: Upland pre-emergence treatment test, phytotoxicity to corn; type: in vivo; details: pre-emergence soil surface spray, 80 g/ha, 20th day after treatment, greenhouse; further: ranges in brackets are in %
From the text: as §1, §2, §3, §4

[8] = tested on: velvetleaf; test: Upland post-emergence treatment test, velvetleaf; type: in vivo, velvetleaf (Abutilon theophrasti); details: for Herbicidal Efficacy AA = Velvetleaf: post-emergence spray at 3-4 leaf stage, 80 g/ha, 30th day after treatment, greenhouse; on Herbicidal Efficacy AA = Velvetleaf: ranges in brackets are in %
From the text: as §1, §2, §3
(§5) Seeds of weeds velvetleaf, redroot pigweed, common ragweed, green foxtail and large crabgrass and seeds of corn were sown in 1/5,000-are Wagner pots filled with upland soil, and covered with upland soil. The seeds were grown in a greenhouse, and at the stage of 3˜4 leaves of these plants, a predetermined amount of the herbicide prepared in the above (1) was suspended in water, and the suspension was uniformly sprayed onto leaf and stalk portions at a rate of 2,000 liters/hectare. Then, the plants were grown in the greenhouse, and on the 30th day after the treatment, the herbicide was evaluated for herbicidal efficacy and phytotoxicity to the corn on the basis of the ratings shown in (2).

[9] = tested on: redroot pigweed; test: Upland post-emergence treatment test, redroot pigweed; type: in vivo, redroot pigweed (Amaranthus retroflexus); details: for Herbicidal Efficacy CC = Redroot Pigweed: post-emergence spray at 3-4 leaf stage, 80 g/ha, 30th day after treatment, greenhouse; for herbicidal efficacy against redroot pigweed (in words): post-emergence, Tables 8 and 9; on Herbicidal Efficacy CC = Redroot Pigweed: ranges in brackets are in %
From the text: as §1, §2, §3, §5

[10] = tested on: common ragweed; test: Upland post-emergence treatment test, common ragweed; type: in vivo, common ragweed (Ambrosia artemisilfolia); details: post-emergence spray at 3-4 leaf stage, 80 g/ha, 30th day after treatment, greenhouse; further: ranges in brackets are in %
From the text: as §1, §2, §3, §5

[11] = tested on: green foxtail; test: Upland post-emergence treatment test, green foxtail; type: in vivo, green foxtail (Setaria viridis); details: post-emergence spray at 3-4 leaf stage, 80 g/ha, 30th day after treatment, greenhouse; further: ranges in brackets are in %
From the text: as §1, §2, §3, §5

[12] = tested on: large crabgrass; test: Upland post-emergence treatment test, large crabgrass; type: in vivo; details: post-emergence spray at 3-4 leaf stage, 80 g/ha, 30th day after treatment, greenhouse; further: ranges in brackets are in %
From the text: as §1, §2, §3, §5

[13] = tested on: corn; test: Upland post-emergence treatment test, phytotoxicity to corn; type: in vivo; details: post-emergence spray at 3-4 leaf stage, 80 g/ha, 30th day after treatment, greenhouse; further: ranges in brackets are in %
From the text: as §1, §2, §3, §5

[14] = pre-emergence, text summary of Table 7

Row | SMILES | Herbicidal Efficacy AA = Velvetleaf [1] | Herbicidal Efficacy BB = Common lambsquaters [2] | Herbicidal Efficacy CC = Rough Pigweed [3] | Herbicidal Efficacy DD = Common ragweed [4] | Herbicidal Efficacy EE = Green foxtail [5] | Herbicidal Efficacy FF = Large crabgrass [6] | Phytotoxicity Corn [7] | Herbicidal Efficacy AA = Velvetleaf [8] | Herbicidal Efficacy CC = Redroot Pigweed [9] | Herbicidal Efficacy DD = Common ragweed [10] | Herbicidal Efficacy EE = Green foxtail [11] | Herbicidal Efficacy FF = Large crabgrass [12] | Phytotoxicity Corn [13] | herbicidal efficacy against redroot pigweed (in words) [3] | herbicidal efficacy against redroot pigweed (in words) [9] | herbicidal efficacy against velvetleaf (in words) [1, 14] | herbicidal efficacy against common ragweed (in words) [4, 14] | herbicidal efficacy against velvetleaf (in words) ([8]; post-emergence, Tables 8 and 9)
1 | Cc1c(C(=O)c2cnn(C)c2O)ccc2c1C(C)(C)CS2(=O)=O.[Na] [Compound 52, 5-(1′-methyl-5′-hydroxypyrazol-4′-yl)carbonyl-3,3,4-trimethyl-2,3-dihdyrobenzothiophene-1,1-dioxide sodium salt] | 4 (1-20) | 5 (0) | 5 (0) | 4 (1-20) | 4 (1-20) | 5 (0) | − (100) | 5 (0) | 5 (0) | 5 (0) | 5 (0) | 5 (0) | − (100) | – | – | – | – | –
2 | CCCS(=O)(=O)Oc1c(C(=O)c2cc(C)c3c(c2C)C(C)(C)CS3(=O)=O)cnn1CC [Compound (A), reference compound] | 2 (41-60) | 2 (41-60) | 0 (81-100) | 1 (61-80) | 1 (61-80) | 1 (61-80) | − (100) | 2 (41-60) | 0 (81-100) | 2 (41-60) | 1 (61-80) | 1 (61-80) | − (100) | clearly poor | clearly poor | – | – | –
3 | CCn1ncc(C(=O)c2cc(C)c3c(c2C)C(C)CS3(=O)=O)c1O (stereo not shown) [Compound (B), reference compound] | 1 (61-80) | 4 (1-20) | 1 (61-80) | 2 (41-60) | 5 (0) | 5 (0) | − (100) | 2 (41-60) | 2 (41-60) | 5 (0) | 4 (1-20) | 5 (0) | ++ (80-89) | inferior | inferior | inferior | inferior | inferior
